The values that follow come from US20110301245A1, “(R)-2-(3,4-DIMETHOXYPHENOL)-2-ISOPROPYL-6-AZAHEPTANITRIL FORMULAITONS, ANDTHE USE OF SUCH FORMULATIONS IN THE TREATMENT OF CONDITIONS MEDIATED BY THE SEROTONIN TRANSPORTER” (AGI THERAPEUTICS, PLC, priority 2010, published 2011).

“And” between values parts separate entries of the source, which are not always exact repeats. Identical values can stand only once. Like-named read-outs stand apart in the source and are kept apart here.

One data set deals with T1, 5-HT transporter (h) (Homo sapiens, UniProt P31645).
T1 construct: expressed in transfected cells; host or cells: CHO cells
Nature of the data set: 5-HT transporter (h) antagonist radioligand binding assay, human recombinant CHO cells, [3H]imipramine. From the text: For its discussion of the assay method, Tatsumi et al. is incorporated herein by reference in its entirety.
The specific ligand binding to the receptors is defined as the difference between the total binding and the nonspecific binding determined in the presence of an excess of unlabelled ligand.
The results are expressed as a percent of control specific binding ((measured specific binding/control specific binding)×100) and as a percent inhibition of control specific binding (100−((measured specific binding/control specific binding)×100)) obtained in the presence of (R)-2-(3,4-dimethoxyphenol)-2-isopropyl-6-azaheptanitril.
The IC50 values (concentration causing a half-maximal inhibition of control specific binding) and Hill coefficients (nH) were determined by non-linear regression analysis of the competition curves generated with mean replicate values using Hill equation curve fitting (Y=D+[(A−D)/(1+(C/C50)^nH)], where Y=specific binding, D=minimum specific binding, A=maximum specific binding, C=compound concentration, C50=IC50, and nH=slope factor).
The inhibition constants (Ki) were calculated using the Cheng Prusoff equation (Ki=IC50/(1+(L/KD)), where L=concentration of radioligand in the assay, and KD=affinity of the radioligand for the receptor).

Data set [1] concerns other receptors tested, including calcium channels. Nature of the data set: Single high concentration test on other receptors (data not included). The data set is classed as binding. The conditions noted are these: single high concentration 1×10^−5M.
The test system of data set [2] is male wistar rats with Monocrotaline-induced PAH. Nature of the data set: Inhibition of PAH development, monocrotaline-induced pulmonary arterial hypertension. Format: in vivo, rat. The conditions noted are these: Mct 60 mg/kg sc, 5 mg/kg IP daily for 21 days. The protocol: Experimental pulmonary arterial hypertension (PAH) was induced in male wistar rats (Charles River Laboratories) weighing between 250 and 300 g by subcutaneous injection of 60 mg/kg Monocrotaline (Met) on Day 1. The Mct (Sigma Aldrich) was dissolved in 1N HCl at a concentration of 300 mg/ml as per M. Rey et al., Current Protocols in Pharmacology, 5.56.1-5.56.11, September 2009, which document is incorporated by reference herein in its entirety. Mct was then neutralized by adding 1N NaOH and diluted with sterile distilled water to a final concentration of 20 mg/ml. An injection volume of 3 ml/kg was used to achieve the 60 mg/kg dose.
A total of 44 rats were injected as follows: 15 rats were injected subcutaneously with Mct (untreated PAH controls), 15 rats were injected subcutaneously with Mct followed by daily IP injection with 5 mg/kg (R)-2-(3,4-dimethoxyphenol)-2-isopropyl-6-azaheptanitril for 21 days (R-D617 treated group), and 14 rats were injected subcutaneously with neutralized solvent having no Mct (non-PAH controls (sham)).
All animals were then housed (allowed food and water ad lib). The animals were anaesthetized 21 days after injection, and pulmonary arterial pressure was measured and expressed as mean pulmonary arterial pressure (mPAP mmHg). A terminal sample was also obtained and used to obtain terminal drug concentrations. […]

The target of data set [3] is T2, 5-HT uptake (rat brain synaptosomes) (Rattus norvegicus, UniProt P31652).
T2 construct: from tissue; host or cells: rat brain synaptosomes
Put plainly: In vitro 5-HT uptake assay using rat brain synaptosomes. The conditions noted are these: for % of Control Values, 1st / % of Control Values, 2nd / % of Control Values, Mean: Table 2-2. The data set is classed as biochemical. The procedure: Briefly, the uptake assay was performed using rat brain synaptosomes according to the method generally described in Perovic and Muller, Arzneim-Forsch. […] For its disclosure of the above-noted assay, Perovic and Muller is incorporated herein by reference in its entirety.
The results are expressed as a percent of control specific activity ((measured specific activity/control specific activity)×100) obtained in the presence of (R)-2-(3,4-dimethoxyphenol)-2-isopropyl-6-azaheptanitril.
The IC50 values (concentration causing a half-maximal inhibition of control specific activity) and Hill coefficients (nH) were determined by non-linear regression analysis of the inhibition curves generated with mean replicate values using Hill equation curve fitting (Y=D+[(A−D)/(1+(C/C50)^nH)], where Y=specific activity, D=minimum specific activity, A=maximum specific activity, C=compound concentration, C50=IC50 and nH=slope factor).

The nature of data set [4]: Terminal plasma drug concentrations by HPLC in the PAH study. As to conditions: rat, 5 mg/kg IP daily for 21 days. Format: in vivo. The protocol:
All animals were then housed (allowed food and water ad lib). The animals were anaesthetized 21 days after injection, and pulmonary arterial pressure was measured and expressed as mean pulmonary arterial pressure (mPAP mmHg). A terminal sample was also obtained and used to obtain terminal drug concentrations. Following exsanguination, cardiac tissues were excised and used to assess the wet weight of the right cardiac ventricle.

The conditions of data set [5]: % of the potency of verapamil; cited from earlier work.
For the next data set, the target named is p-glycoprotein (Homo sapiens, UniProt P08183). As to conditions: prior non-clinical studies; cited from earlier work.
The target of another data set is HERG (Homo sapiens, UniProt Q12809). The conditions noted are these: prior non-clinical studies; cited from earlier work.
The next data set has as its system CYP. As to conditions: prior non-clinical studies; cited from earlier work.

T2 sequence (P31652 whole entry): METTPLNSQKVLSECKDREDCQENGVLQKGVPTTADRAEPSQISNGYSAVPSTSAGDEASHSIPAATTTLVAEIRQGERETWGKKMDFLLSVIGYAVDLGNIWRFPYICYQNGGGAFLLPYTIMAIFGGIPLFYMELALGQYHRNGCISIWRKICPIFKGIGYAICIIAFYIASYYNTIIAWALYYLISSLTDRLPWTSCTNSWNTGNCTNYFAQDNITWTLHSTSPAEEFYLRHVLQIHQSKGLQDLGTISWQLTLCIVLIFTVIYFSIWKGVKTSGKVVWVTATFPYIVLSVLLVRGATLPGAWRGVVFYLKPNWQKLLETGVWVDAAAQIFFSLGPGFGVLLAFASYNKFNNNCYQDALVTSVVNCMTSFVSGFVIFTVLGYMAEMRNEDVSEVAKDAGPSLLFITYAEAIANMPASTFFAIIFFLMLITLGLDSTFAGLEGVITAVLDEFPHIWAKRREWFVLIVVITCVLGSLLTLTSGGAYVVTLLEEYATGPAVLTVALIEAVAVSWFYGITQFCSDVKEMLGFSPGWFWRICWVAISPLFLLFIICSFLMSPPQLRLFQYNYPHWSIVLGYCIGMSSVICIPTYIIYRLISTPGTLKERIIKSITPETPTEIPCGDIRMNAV
T1 sequence (P31645 whole entry): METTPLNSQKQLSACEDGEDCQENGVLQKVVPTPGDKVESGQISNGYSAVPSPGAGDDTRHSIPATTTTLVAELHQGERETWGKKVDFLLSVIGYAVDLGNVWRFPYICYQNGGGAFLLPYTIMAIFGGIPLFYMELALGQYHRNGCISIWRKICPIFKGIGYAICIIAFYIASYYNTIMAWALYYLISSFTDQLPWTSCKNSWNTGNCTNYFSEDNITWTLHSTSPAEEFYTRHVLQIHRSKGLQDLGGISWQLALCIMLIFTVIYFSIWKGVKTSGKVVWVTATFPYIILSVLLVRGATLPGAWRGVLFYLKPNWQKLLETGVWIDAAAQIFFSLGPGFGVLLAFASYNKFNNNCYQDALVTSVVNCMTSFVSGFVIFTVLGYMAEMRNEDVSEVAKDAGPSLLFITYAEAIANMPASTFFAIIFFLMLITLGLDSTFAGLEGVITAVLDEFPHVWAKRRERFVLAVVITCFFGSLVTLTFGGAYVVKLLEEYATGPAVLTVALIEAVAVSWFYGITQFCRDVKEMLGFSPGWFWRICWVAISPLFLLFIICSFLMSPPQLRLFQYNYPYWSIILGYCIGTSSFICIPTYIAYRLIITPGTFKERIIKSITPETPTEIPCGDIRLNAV
p-glycoprotein, sequence (P08183 whole entry): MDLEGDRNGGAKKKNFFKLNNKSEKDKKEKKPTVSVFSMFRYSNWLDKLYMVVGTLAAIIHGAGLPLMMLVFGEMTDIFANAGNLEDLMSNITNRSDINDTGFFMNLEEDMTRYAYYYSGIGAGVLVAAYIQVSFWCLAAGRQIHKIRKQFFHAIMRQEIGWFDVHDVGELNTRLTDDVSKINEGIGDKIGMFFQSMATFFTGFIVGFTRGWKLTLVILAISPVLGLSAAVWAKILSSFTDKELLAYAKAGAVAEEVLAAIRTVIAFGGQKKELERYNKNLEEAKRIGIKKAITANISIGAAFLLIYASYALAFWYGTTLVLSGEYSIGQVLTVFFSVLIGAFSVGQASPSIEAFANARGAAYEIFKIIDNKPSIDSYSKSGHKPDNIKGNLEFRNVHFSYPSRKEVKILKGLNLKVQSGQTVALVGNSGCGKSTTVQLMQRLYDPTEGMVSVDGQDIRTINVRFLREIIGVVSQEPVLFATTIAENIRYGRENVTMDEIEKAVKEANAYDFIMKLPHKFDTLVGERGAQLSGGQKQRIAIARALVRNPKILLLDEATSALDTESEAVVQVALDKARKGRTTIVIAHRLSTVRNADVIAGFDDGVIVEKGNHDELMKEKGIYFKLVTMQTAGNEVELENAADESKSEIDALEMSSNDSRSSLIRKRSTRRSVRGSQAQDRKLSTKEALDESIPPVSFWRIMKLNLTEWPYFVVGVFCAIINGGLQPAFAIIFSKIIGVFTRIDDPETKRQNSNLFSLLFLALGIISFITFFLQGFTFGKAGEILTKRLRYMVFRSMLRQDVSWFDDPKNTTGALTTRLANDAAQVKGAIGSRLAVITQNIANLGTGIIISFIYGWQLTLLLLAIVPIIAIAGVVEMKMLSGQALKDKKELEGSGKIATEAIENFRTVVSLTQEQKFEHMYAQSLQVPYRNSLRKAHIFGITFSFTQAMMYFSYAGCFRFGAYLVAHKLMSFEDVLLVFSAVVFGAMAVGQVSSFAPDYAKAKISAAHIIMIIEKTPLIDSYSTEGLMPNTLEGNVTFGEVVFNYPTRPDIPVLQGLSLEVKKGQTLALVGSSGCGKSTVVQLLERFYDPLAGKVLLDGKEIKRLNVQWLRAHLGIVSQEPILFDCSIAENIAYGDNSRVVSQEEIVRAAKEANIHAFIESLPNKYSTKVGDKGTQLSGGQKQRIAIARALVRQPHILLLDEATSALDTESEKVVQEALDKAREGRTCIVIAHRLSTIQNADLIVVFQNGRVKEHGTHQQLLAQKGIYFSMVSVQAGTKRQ
HERG, sequence (Q12809 whole entry): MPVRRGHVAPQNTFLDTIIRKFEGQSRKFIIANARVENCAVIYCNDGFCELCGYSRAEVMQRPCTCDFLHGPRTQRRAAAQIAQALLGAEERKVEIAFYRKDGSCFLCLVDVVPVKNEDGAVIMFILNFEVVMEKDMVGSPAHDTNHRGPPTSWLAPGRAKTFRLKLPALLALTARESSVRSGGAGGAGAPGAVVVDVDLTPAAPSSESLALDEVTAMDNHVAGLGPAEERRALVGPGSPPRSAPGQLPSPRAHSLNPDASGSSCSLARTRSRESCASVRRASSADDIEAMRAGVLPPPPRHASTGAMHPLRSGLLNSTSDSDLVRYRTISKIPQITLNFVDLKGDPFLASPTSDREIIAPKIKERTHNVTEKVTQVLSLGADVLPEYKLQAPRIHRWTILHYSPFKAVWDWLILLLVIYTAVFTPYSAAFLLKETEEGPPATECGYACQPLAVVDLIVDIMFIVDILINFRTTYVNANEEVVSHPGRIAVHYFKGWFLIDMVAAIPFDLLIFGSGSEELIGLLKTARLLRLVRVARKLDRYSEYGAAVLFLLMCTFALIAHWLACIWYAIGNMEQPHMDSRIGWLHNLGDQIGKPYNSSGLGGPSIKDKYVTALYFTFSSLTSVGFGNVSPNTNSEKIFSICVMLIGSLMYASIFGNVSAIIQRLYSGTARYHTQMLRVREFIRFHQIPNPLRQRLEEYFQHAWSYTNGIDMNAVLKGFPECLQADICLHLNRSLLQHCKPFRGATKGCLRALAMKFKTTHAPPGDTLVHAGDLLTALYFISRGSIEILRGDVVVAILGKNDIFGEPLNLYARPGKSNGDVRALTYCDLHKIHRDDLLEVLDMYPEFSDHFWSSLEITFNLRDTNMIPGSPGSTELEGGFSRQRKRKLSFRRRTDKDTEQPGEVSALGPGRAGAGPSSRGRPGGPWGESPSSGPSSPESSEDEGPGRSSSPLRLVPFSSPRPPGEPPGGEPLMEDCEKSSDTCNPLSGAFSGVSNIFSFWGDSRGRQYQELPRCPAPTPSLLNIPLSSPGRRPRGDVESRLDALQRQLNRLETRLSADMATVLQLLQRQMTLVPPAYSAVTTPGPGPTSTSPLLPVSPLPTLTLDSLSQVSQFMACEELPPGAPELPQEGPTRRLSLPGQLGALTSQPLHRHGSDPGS

For `CN(C)CCCN1c2ccccc2CCc2ccccc21` [imipramine, reference compound], the “nH (Hill coefficient)” value on 5-HT transporter (h) is 0.9 and 1.2.

With `CNCCC[C@](C#N)(c1ccc(OC)c(OC)c1)C(C)C` [(R)-2-(3,4-dimethoxyphenol)-2-isopropyl-6-azaheptanitril], the “% Inhibition of Control Specific Binding” value on 5-HT transporter (h) (Table 1-1, test concentration 1.0E−05 M) worked out at 100%. Moreover, the “% of Control Specific Binding, 1st” value on 5-HT transporter (h) (Table 1-2, 1.0E−05 M) is on record as −0.6%; on 5-HT transporter (h) (Table 1-5, 1.0E−05 M) it was 0.5%; on 5-HT transporter (h) (Table 1-5, 1.0E−06 M) it was 5.9%; at 5-HT transporter (h) (Table 1-5, 1.0E−07 M) it was 36.5%; at 5-HT transporter (h) (Table 1-5, 1.0E−08 M), 83.3%; at 5-HT transporter (h) (Table 1-5, 3.0E−07 M), 15.3%. Moreover, the “% of Control Specific Binding, 1st” value at 5-HT transporter (h) (Table 1-5, 3.0E−08 M) was 66.6%; on 5-HT transporter (h) (Table 1-5, 3.0E−09 M), 101.5%; on 5-HT transporter (h) (Table 1-5, 3.0E−10 M), 104.1%. In addition, the “% of Control Specific Binding, 2nd” value at 5-HT transporter (h) (Table 1-2, 1.0E−05 M) is 0.8%; on 5-HT transporter (h) (Table 1-5, 1.0E−05 M), 0.2%; at 5-HT transporter (h) (Table 1-5, 1.0E−06 M), 3.7%; on 5-HT transporter (h) (Table 1-5, 1.0E−07 M) it was 32.5%; on 5-HT transporter (h) (Table 1-5, 1.0E−08 M) it was 84.8%; on 5-HT transporter (h) (Table 1-5, 3.0E−07 M), 13.1%. The “% of Control Specific Binding, 2nd” value was 58.0% on 5-HT transporter (h) (Table 1-5, 3.0E−08 M); 88.4% at 5-HT transporter (h) (Table 1-5, 3.0E−09 M); 102.0% on 5-HT transporter (h) (Table 1-5, 3.0E−10 M). Further, the “% of Control Specific Binding, Mean” value is recorded as 0.1% on 5-HT transporter (h) (Table 1-2, 1.0E−05 M); 0.3% on 5-HT transporter (h) (Table 1-5, 1.0E−05 M); 4.8% at 5-HT transporter (h) (Table 1-5, 1.0E−06 M); 34.5% at 5-HT transporter (h) (Table 1-5, 1.0E−07 M); 84.0% on 5-HT transporter (h) (Table 1-5, 1.0E−08 M); 14.2% at 5-HT transporter (h) (Table 1-5, 3.0E−07 M). Further, the “% of Control Specific Binding, Mean” value at 5-HT transporter (h) (Table 1-5, 3.0E−08 M) was 62.3%; at 5-HT transporter (h) (Table 1-5, 3.0E−09 M), 94.9%; at 5-HT transporter (h) (Table 1-5, 3.0E−10 M), 103.1%. For the same molecule, the “nH (Hill coefficient)” value on 5-HT transporter (h) (Table 1-4) is reported as 1.0. In addition, the Ki (as a rule, the dissociation constant of the complex between target and ligand, obtained from inhibition or displacement) at 5-HT transporter (h) (Table 1-4, Cheng Prusoff) is 22 nM. The IC50 (in general, the point on the concentration scale where inhibition reaches its midpoint) on 5-HT transporter (h) (read-out: IC50 for inhibition of binding at the serotonin transporter) turned out to be 47 nM; in data set [3] (Table 2-1, 5-HT uptake) it was 240 nM. For the same molecule, the “inhibition of the serotonin transporter” value on 5-HT transporter (h) (single high concentration 1×10^−5M) is given as 100%. For the same molecule, the inhibition (usually the share of the control response that was lost under treatment) at the majority of the other receptors tested in [1] was less than 75%. Also, the “mPAP (Mean +/− SEM)” value in [2] (measured 21 days after injection, untreated PAH control 36.0, sham 14.7) is given as 30.0 +/− 2.5 mmHg. In addition, in data set [2] (wet weight, untreated PAH control 317.9, sham 167.4), the “Right Ventricle Weight (Mean +/− SEM)” value is given as 288.7 +/− 13.4. Further, the “% of Control Values, 1st” value in data set [3] (1.0E−05 M) worked out at 1.0%; in data set [3] (1.0E−06 M) it was 22.1%; in [3] (1.0E−07 M), 79.8%; in data set [3] (1.0E−08 M) it was 101.7%; in [3] (3.0E−07 M), 47.8%; in [3] (3.0E−08 M), 108.1%. Moreover, the “% of Control Values, 1st” value in [3] (3.0E−09 M) was found to be 100.2%; in data set [3] (3.0E−10 M), 113.5%. In addition, the “% of Control Values, 2nd” value in [3] (1.0E−05 M) was determined as 5.2%; in data set [3] (1.0E−06 M), 21.1%; in data set [3] (1.0E−07 M), 81.9%; in data set [3] (1.0E−08 M), 94.0%; in data set [3] (3.0E−07 M) it was 44.9%; in data set [3] (3.0E−08 M), 82.8%. Also, the figures for the “% of Control Values, 2nd” value in [3] (3.0E−09 M) and in [3] (3.0E−10 M) were 113.4% and 113.3%, respectively. Also, the “% of Control Values, Mean” value in [3] (1.0E−05 M) amounted to 3.1%; in [3] (1.0E−06 M), 21.6%; in data set [3] (1.0E−07 M) it was 80.8%; in data set [3] (1.0E−08 M) it was 97.9%; in data set [3] (3.0E−07 M) it was 46.3%; in data set [3] (3.0E−08 M), 95.4%. In addition, the “% of Control Values, Mean” value in data set [3] (3.0E−09 M) was determined as 106.8%; in data set [3] (3.0E−10 M), 113.4%. Moreover, the “mean terminal plasma concentration of (R)-2-(3,4-dimethoxyphenol)-2-isopropyl-6-azaheptanitril” value in data set [4] (R-D617 treated group) turned out to be 18.5 ng/mL. Further, the “terminal plasma concentration of R-verapamil after R-D617 treatment” value in data set [4] (lower limit of quantification 1 ng/ml) is less than 1 ng/mL. The “R-verapamil measured in terminal plasma of the R-D617 treated group” value in [4] (result in words) is recorded as “no quantifiable R-verapamil”.

Consider `COc1ccc(CCNCCCC(C#N)(c2ccc(OC)c(OC)c2)C(C)C)cc1OC` (stereo not drawn) [nor-verapamil], for which the “cardiovascular potency compared with verapamil” value in [5] was 21.9%.

Regarding `CNCCCC(C#N)(c1ccc(OC)c(OC)c1)C(C)C` [D-617, 2-(3,4-dimethoxyphenol)-2-isopropyl-6-azaheptanitril], the “p-glycoprotein transport: substrate / inhibitor” value on p-glycoprotein was “substrate for, but not an inhibitor of”. The “block of HERG-induced currents” value on HERG was “does not block”. The “CYP-mediated metabolism: substrate / inhibitor” value in the data set with CYP was “substrate for but not a potent inhibitor of”. Moreover, the “cardiovascular potency compared with verapamil” value in data set [5] is given as 2.6%.
